Results on 9 molecules are retold here after ChEMBL document CHEMBL1154702, “Enhancement of the antimalarial activity of ciprofloxacin using a double prodrug/bioorganometallic approach” (J Med Chem, 2009).

The nature of series [1]: Cytotoxicity against concanavalin-stimulated BALB/c mouse splenocytes after 72 hrs by resazurin dye reduction method. The format is cell-based. The settings on record: Splenocyte.
Series [2] relates to Plasmodium falciparum. Nature of the series: Antimalarial activity against chloroquine-resistant Plasmodium falciparum W2 infected in erythrocytes after 96 hrs by [3H]hypoxanthine incorporation assay. The format is functional, organism-based.
Series [3] can be described thus: Therapeutic index, ratio of IC50 for concanavalin-stimulated BALB/c mice (Mus musculus) splenocytes to IC50 for Plasmodium falciparum W2 after 48 hrs. The settings on record: read-out: Ratio IC50.
Series [4] concerns Plasmodium falciparum. Description: Antimalarial activity against chloroquine-sensitive Plasmodium falciparum PA infected in erythrocytes after 48 hrs by [3H]hypoxanthine incorporation assay. The series is classed as functional, organism-based.
The test system of series [5] is Plasmodium falciparum. Nature of the series: Antimalarial activity against chloroquine-sensitive Plasmodium falciparum IMT10500 infected in erythrocytes after 48 hrs by [3H]hypoxanthine incorporation assay. The format is functional, organism-based.
Series [6] deals with Plasmodium falciparum. Description: Antimalarial activity against chloroquine-sensitive Plasmodium falciparum 3D7 infected in erythrocytes after 96 hrs by [3H]hypoxanthine incorporation assay. The format is functional, organism-based.
Series [7] has as its system Plasmodium falciparum. Nature of the series: Antimalarial activity against chloroquine-sensitive Plasmodium falciparum 3D7 infected in erythrocytes after 48 hrs by [3H]hypoxanthine incorporation assay. The format is functional, organism-based.
Series [8] has as its system Plasmodium falciparum. Description: Antimalarial activity against chloroquine-sensitive Plasmodium falciparum FCM29 infected in erythrocytes after 48 hrs by [3H]hypoxanthine incorporation assay. The format is functional, organism-based.
The test system of series [9] is Plasmodium falciparum. Description: Antimalarial activity against chloroquine-sensitive Plasmodium falciparum IMTL1 infected in erythrocytes after 48 hrs by [3H]hypoxanthine incorporation assay. The series is classed as functional, organism-based.
The subject of series [10] is Plasmodium falciparum. Nature of the series: Antimalarial activity against […] Plasmodium falciparum IMT K2 infected in erythrocytes after 48 hrs by [3H]hypoxanthine incorporation assay. The format is functional, organism-based.
Series [11] concerns Plasmodium falciparum. Description: Antimalarial activity against chloroquine-sensitive Plasmodium falciparum IMTVo1 infected in erythrocytes after 48 hrs by [3H]hypoxanthine incorporation assay. The format is functional, organism-based.
Series [12] in a line: Therapeutic index, ratio of IC50 for concanavalin-stimulated BALB/c mice (Mus musculus) splenocytes to IC50 for Plasmodium falciparum 3D7. The settings on record: read-out: Ratio IC50.
Series [13] relates to Plasmodium falciparum. Description: Antimalarial activity against chloroquine-resistant Plasmodium falciparum W2 infected in erythrocytes after 48 hrs by [3H]hypoxanthine incorporation assay. The format is functional, organism-based.
Series [14] has as its system Plasmodium falciparum. Description: Antimalarial activity against chloroquine-sensitive Plasmodium falciparum FCR3 infected in erythrocytes after 48 hrs by [3H]hypoxanthine incorporation assay. The series is classed as functional, cell-based. The settings on record: FCR-3/Gambia.
For series [15], the system named is Plasmodium falciparum. Nature of the series: Antimalarial activity against Plasmodium falciparum NF54. The format is functional, organism-based.
The test system of series [16] is Plasmodium falciparum. Description: Antimalarial activity against Plasmodium falciparum 3D7. The series is classed as functional, organism-based.

As for `O=C(O)c1cn(C2CC2)c2cc(N3CCNCC3)c(F)cc2c1=O` [CIPROFLOXACIN], the half-maximal inhibitory concentration (IC50) is more than 40 µM in [1]; 14.1 µM in the series with Plasmodium falciparum [2]; 45.5 µM with Plasmodium falciparum [4]; 74.8 µM in the series on Plasmodium falciparum [5]; 10.1 µM in the series with Plasmodium falciparum [6]; 45.9 µM with Plasmodium falciparum [7]. Also, the half-maximal inhibitory concentration (IC50) in the series on Plasmodium falciparum [8] came out at 45.6 µM; in the series with Plasmodium falciparum [9], 41.3 µM; with Plasmodium falciparum [10], 80.8 µM; in the series with Plasmodium falciparum [11] it was 51.6 µM; with Plasmodium falciparum [13], 119 µM; in the series on Plasmodium falciparum [14], 74.3 µM. Further, the selectivity ratio at 48 h in [3] is more than 0.3. Further, the selectivity ratio in series [12] is more than 0.8.

On to `CCOC(=O)c1cn(C2CC2)c2cc(N3CCNCC3)c(F)cc2c1=O` [CIPROFLOXACIN ETHYL ESTER], for which the IC50 was more than 40 µM in series [1]; 3.1 µM in the series on Plasmodium falciparum [2]; not below 10 µM in the series on Plasmodium falciparum [15]; 1.6 µM in the series on Plasmodium falciparum [6]; 3.1 µM with Plasmodium falciparum [7]; 3.9 µM with Plasmodium falciparum [13]. In the series on Plasmodium falciparum [16], the half-inhibitory concentration (IC50) was not below 10 µM. The selectivity ratio at 48 h in series [3] was more than 10.2. Moreover, in series [12], the selectivity ratio was more than 12.9.

As to `COc1c(N2CCNC(C)C2)c(F)cc2c(=O)c(C(=O)O)cn(C3CC3)c12` (stereo unspecified) [GATIFLOXACIN], the IC50 in the series with Plasmodium falciparum [15] and with Plasmodium falciparum [16] was not below 10 µM in each case.

Regarding `COc1c(N2C[C@@H]3CCCN[C@@H]3C2)c(F)cc2c(=O)c(C(=O)O)cn(C3CC3)c12` [MOXIFLOXACIN], the IC50 in the series on Plasmodium falciparum [15] and with Plasmodium falciparum [16] was not below 10 µM throughout.

With `C[C@H]1c2cccc(O)c2C(=O)C2=C(O)[C@]3(O)C(=O)C(C(N)=O)=C(O)[C@@H](N(C)C)[C@@H]3[C@@H](O)[C@@H]21` [DOXYCYCLINE], the half-inhibitory concentration (IC50) in the series with Plasmodium falciparum [2] stood at 1.2 µM; in the series with Plasmodium falciparum [4] it was 12.9 µM; with Plasmodium falciparum [5] (read-out: IC50), 13.3 µM; in the series with Plasmodium falciparum [6], 1.7 µM; with Plasmodium falciparum [7], 12 µM; in the series with Plasmodium falciparum [8], 11.1 µM. Also, the IC50 in the series on Plasmodium falciparum [9] amounted to 8.4 µM; in the series on Plasmodium falciparum [10] it was 14.9 µM; in the series on Plasmodium falciparum [11] (read-out: IC50), 9.1 µM; in the series with Plasmodium falciparum [13], 10.7 µM; in the series with Plasmodium falciparum [14] (read-out: IC50), 9.7 µM.

In the case of `Cc1c(F)c(N2CCNC(C)C2)cc2c1c(=O)c(C(=O)O)cn2C1CC1` (stereo unspecified) [GREPAFLOXACIN], the IC50 in the series with Plasmodium falciparum [15] and with Plasmodium falciparum [16] was not below 10 µM in each case.

Turning to `C=C[C@H]1CN2CC[C@H]1C[C@H]2[C@H](O)c1ccnc2ccc(OC)cc12` [QUININE], the half-inhibitory concentration (IC50) is 456 µM with Plasmodium falciparum [2]; 0.571 µM in the series with Plasmodium falciparum [4]; 186 µM with Plasmodium falciparum [7]; 0.0058 µM with Plasmodium falciparum [8]; 0.543 µM in the series with Plasmodium falciparum [9]; 0.0067 µM in the series with Plasmodium falciparum [10]. Further, the results for the IC50 with Plasmodium falciparum [11] (read-out: IC50), with Plasmodium falciparum [13] and in the series with Plasmodium falciparum [14] (read-out: IC50) were 0.428 µM, 520 µM and 0.65 µM, respectively.

For `C[C@H]1[C@H](OC(=O)CCC(=O)O)O[C@@H]2O[C@@]3(C)CC[C@H]4[C@H](C)CC[C@@H]1[C@@]24OO3` [ARTESUNATE], the 50% inhibitory concentration (IC50) in the series with Plasmodium falciparum [2] stood at 2.1 µM; in the series with Plasmodium falciparum [4], 0.002 µM; with Plasmodium falciparum [6], 2 µM; with Plasmodium falciparum [7], 1.7 µM; with Plasmodium falciparum [10], 0.0018 µM; in the series on Plasmodium falciparum [13] it was 2.4 µM.

The molecule `CCN(CC)CCCC(C)Nc1ccnc2cc(Cl)ccc12` (stereo unspecified) [CHLOROQUINE] came in with an IC50 in [1] of 3.46 µM.
